Assay results as given in patent US11046657B2, “Pyrimidinone derivatives and uses thereof to neutralize the biological activity of chemokines” (Centre National de la Recherche Scientifique (CNRS), priority 2016, dated 2021).
Where a name gives a salt, the structure may show the parent alone. Each block holds one compound with its values, some of them ahead of it.

Experiments:
CXCR4-CXCL12 binding = target: T1, CXCR4-CXCL12 binding (Homo sapiens, UniProt P48061); assay: Inhibition of CXCL12-TR binding to CXCR4-GFP (FRET); settings: for Affinity for CXCL12 (SAR): deduced from comparative examples
T1 construct: expressed in transfected cells
T1 sequence (P48061 22-89 limits assumed): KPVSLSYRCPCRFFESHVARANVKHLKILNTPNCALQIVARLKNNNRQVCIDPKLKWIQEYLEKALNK
Procedure: Study of the changes of CXCR4-CXCL12 binding was achieved by the energy transfer technique^10,11.
Binding of Texas red-labelled CXCL12 with CXCR4-GFP fused receptor^11 induces fluorescence resonance energy transfer (FRET), which can be monitored by the reduction of GFP fluorescence emission. The characterization of CXCL12 neutraligands was evaluated in two conditions, differing by the sequence of addition of molecules. Reduction of GFP fluorescence emission was more important when neutraligands were preincubated (30 min) […] prior to the addition to cells.
The CXCR4 antagonist, T134 (20 μM) was used as a control in both incubation protocols. Data obtained were consistent with a binding to the chemokine and not to its receptor. Consequently, all selected compounds are indeed CXCL12 chemokine neutraligands and behave as chalcone-4. The neutralizing properties of the compounds are thus confirmed.

SMILES: COc1cc(-c2cc(-c3ccc(N4CCNCC4)cc3)nc(=O)[nH]2)ccc1O.Cl
melting point: 117 to 124 °C

SMILES: Cl.NCCOc1cc(-c2cc(-c3ccc(Cl)cc3)nc(=O)[nH]2)ccc1O
melting point: 272 to 276 °C

SMILES: COc1cc(-c2cc(-c3ccc(N(C)C)nc3)nc(=O)[nH]2)ccc1O.Cl
melting point: 257 to 260 °C

SMILES: COc1cc(-c2cc(-c3ccc(N4CCN(C)CC4)cc3)nc(=O)[nH]2)ccc1O (as salt: hydrochloride)
melting point: 300 to 303 °C

SMILES: COc1ccc(-c2cc(-c3ccc(O)c(OC)c3)[nH]c(=O)n2)cc1 [(2), 4-(4-methoxyphenyl)-6-(4-hydroxy-3-methoxyphenyl)-pyrimidin-2(1H)-one]
inhibition at 10 µM (CXCR4-CXCL12 binding; Table 2): 96 ± 3%

SMILES: COc1cc(-c2cc(-c3ccc(O)cc3)nc(=O)[nH]2)ccc1O [(3), 4-(4-hydroxyphenyl)-6-(4-hydroxy-3-methoxyphenyl)-pyrimidin-2(1H)-one]
inhibition at 10 µM (CXCR4-CXCL12 binding; Table 2): 53 ± 6%

SMILES: COc1cc(-c2cc(-c3ccc(C(C)C)cc3)nc(=O)[nH]2)ccc1O [(4), 4-(4-isopropylphenyl)-6-(4-hydroxy-3-methoxyphenyl)-pyrimidin-2(1H)-one]
inhibition at 10 µM (CXCR4-CXCL12 binding; Table 2): 35 ± 4%

SMILES: COc1cc(-c2cc(-c3ccc(F)cc3)nc(=O)[nH]2)ccc1O [(5), 4-(4-fluorophenyl)-6-(4-hydroxy-3-methoxyphenyl)pyrimidin-2(1H)-one]
inhibition at 10 µM (CXCR4-CXCL12 binding; Table 2): 46 ± 4%

SMILES: COc1cc(-c2cc(-c3ccccc3Cl)nc(=O)[nH]2)ccc1O [(7), 4-(2-chlorophenyl)-6-(4-hydroxy-3-methoxyphenyl)pyrimidin-2(11H)-one]
inhibition at 10 µM (CXCR4-CXCL12 binding; Table 2): 62 ± 5%

SMILES: COc1cc(-c2cc(-c3ccccc3)nc(=O)[nH]2)ccc1O [(8), 4-(phenyl)-6-(4-hydroxy-3-methoxyphenyl)-pyrimidin-2(1H)-one]
inhibition at 10 µM (CXCR4-CXCL12 binding; Table 2): 46 ± 8%

SMILES: O=c1nc(-c2ccc(Cl)cc2)cc(-c2ccc(O)c(OC(F)(F)F)c2)[nH]1 [(9), 4-(4-chlorophenyl)-6-(4-hydroxy-3-(trifluoromethoxy)phenyl)pyrimidin-2(1H)-one]
inhibition at 10 µM (CXCR4-CXCL12 binding; Table 2): 52 ± 10%

Next, values leading:

inhibition at 10 µM (CXCR4-CXCL12 binding; Table 2): 39 ± 7%
SMILES: COc1ccc(-c2cc(-c3ccc(Cl)cc3)nc(=O)[nH]2)cc1O [(10), 4-(4-chlorophenyl)-6-(3-hydroxy-4-methoxyphenyl)pyrimidin-2(1H)-one]

melting point: 257 to 261 °C
SMILES: COc1cc(-c2cc(-c3ccc(Cl)cc3)nc(=O)[nH]2)ccc1C(=O)O [(27), 4-(6-(4-chlorophenyl)-2-oxo-2,3-dihydropyrimidin-4-yl)-2-methoxybenzoic Acid]

inhibition at 10 µM (CXCR4-CXCL12 binding; Table 4): 44 ± 1%
SMILES: COc1cc(-c2cc(-c3ccco3)nc(=O)[nH]2)ccc1O [(28), 4-(furan-2-yl)-6-(4-hydroxy-3-methoxyphenyl)pyrimidin-2(1H)-one]

inhibition at 10 µM (CXCR4-CXCL12 binding; Table 4): 58 ± 15%
SMILES: COc1cc(-c2cc(-c3ccc(Cl)s3)nc(=O)[nH]2)ccc1O [(33), 4-(5-chlorothiophen-2-yl)-6-(4-hydroxy-3-methoxyphenyl)pyrimidin-2(1H)-one]

inhibition at 10 µM (CXCR4-CXCL12 binding; Table 3): 83 ± 2%
SMILES: COc1cc(-c2cc(-c3ccc(O)c(C)c3)nc(=O)[nH]2)ccc1O [(59)]

inhibition at 10 µM (CXCR4-CXCL12 binding; Table 4): 53 ± 14%
SMILES: COc1cc(-c2cc(-c3ccc[nH]3)nc(=O)[nH]2)ccc1O [(60)]

inhibition at 10 µM (CXCR4-CXCL12 binding; Table 3): 26 ± 1%
SMILES: COc1ccc(-c2cc(-c3ccc(Cl)cc3)nc(=O)[nH]2)cc1OC [(D), 4-(4-chlorophenyl)-6-(4-methoxy-3-methoxyphenyl)pyrimidin-2(1H)-one, reference compound]

inhibition at 10 µM (CXCR4-CXCL12 binding; Table 3): 1.8 ± 0.7%
SMILES: COc1ccc(-c2cc(-c3ccc(O)c(C)c3)nc(=O)[nH]2)cc1OC [(E), 4-(4-hydroxy-3-methylphenyl)-6-(4-methoxy-3-methoxyphenyl)pyrimidin-2(1H)-one, reference compound]

inhibition at 10 µM (CXCR4-CXCL12 binding; Table 2): 4.3 ± 3% | Affinity for CXCL12 (SAR) (CXCR4-CXCL12 binding): loss of affinity
SMILES: O=c1nc(-c2ccc(Cl)cc2)cc(-c2ccc(O)cc2)[nH]1 [compound (A), 4-(4-chlorophenyl)-6-(4-hydroxyphenyl)pyrimidin-2(1H)-one, reference compound]

inhibition at 10 µM (CXCR4-CXCL12 binding; Table 2): 19 ± 7%
SMILES: O=c1nc(-c2ccc(Cl)cc2)cc(-c2ccccc2)[nH]1 [compound (B), 4-(4-chlorophenyl)-6-phenylpyrimidin-2(1H)-one, reference compound]

inhibition at 10 µM (CXCR4-CXCL12 binding; Table 2): 10 ± 5% | Affinity for CXCL12 (SAR) (CXCR4-CXCL12 binding): loss of affinity
SMILES: COc1cccc(-c2cc(-c3ccc(Cl)cc3)nc(=O)[nH]2)c1 [compound (C), 4-(4-chlorophenyl)-6-(3-methoxyphenyl)pyrimidin-2(1H)-one, reference compound]
